Reference: article PMC13267113 (npj Drug Discovery, 2025)
≈ marks a conversion by molar mass, not a printed value.

Key:
[1] = biological target: T1, human DNA topoisomerase IIα (TOP2A) (Homo sapiens, UniProt P11388); test: human topoisomerase II alpha decatenation assay; assay type: biochemical; details: n = 3, read-out: IC50 against TOP2A
T1 construct: purchased Inspiralis
Description: Inhibition of topoisomerase activity was examined using the human topoisomerase II alpha decatenation assay kit (Inspiralis) as indicated by the manufacturer. Briefly, a compound dilution series was prepared in DMSO. Water, dilution buffer, assay buffer, plasmid and enzyme were mixed with the compound solution and incubated at 37 °C for 30 min. A positive control (100% activity) was prepared without the compound, and a negative control (0% activity) was prepared without the compound and the enzyme. The reaction was stopped by adding gSTEB-buffer and chloroform/isoamylalcohol (24:1 v/v). The samples were vortexed and centrifuged before running gel electrophoresis. The gel was stained with ethidium bromide and imaged using a Fusion Fx gel imager (Vilber Lourmat). Subsequent analysis was done using ImageJ and GraphPad Prism (Version 10.0.2).

HepG2 (human, liver) = test: MTT cytotoxicity HepG2; assay type: cell-based; details: 72 h, n = 3
Description: (§1) All cell types were cultivated at 37 °C with 5% CO2. HepG2, HEK293, HCT116, CHO-K1, HeLa-CCL-2 and Huh-7.5 were purchased from ATCC. The respective cell media (Gibco) were supplemented with 10% FBS (Gibco) before usage. Cells were used between passages #5 and #30. To obtain biological repeats, cells were split separately for at least two passages.
(§2) Cells were washed with PBS and 0.5 mL trypsin was added. Afterwards, cells were incubated for 5 min before adding 10 mL medium containing 10% FBS. Per well, 120 µL cell suspension (5 × 10^4 cells/mL) was seeded in transparent 96-well cell bind plates and incubated for 2 h (37 °C, 5% CO2). A dilution series (1:3) of test compounds was prepared in respective media containing 10% FBS and added (60 µL) to the prepared cell plate. Cells were incubated for a further 72 h (37 °C, 5% CO2). Next, 20 µL MTT (5 mg/mL in PBS) was added to each well and incubated for 2 h (37 °C, 5% CO2). The wells were emptied and 100 µL isopropanol/10 N HCl (1000:4) per well was added.
(§3) The plates were analyzed by measuring the absorbance at 570 nm (plate reader Infinite® 200 Pro, Tecan). After normalization of data to the respective solvent controls, the calculated percentage of growth inhibition was plotted using GraphPad Prism software (version 10.0.2).

HEK293 (human, kidney) = test: MTT cytotoxicity HEK293; assay type: cell-based; details: HEK293, MTT, 72 h, n = 3, read-out: IC50 HEK293 (human, kidney)
Description: as §1, §2, §3

Huh-7.5 (human, liver) = test: MTT cytotoxicity Huh-7.5; assay type: cell-based; details: Huh7.5, 72 h, n = 3
Description: as §1, §2, §3

[2] = Metabolic stability in mouse hepatocytes; assay type: in vitro ADME
Description: For the evaluation of combined phase I and phase II metabolic stability, the compound (1 μM) was incubated with 0.25 × 10^6 cells/mL of pooled mouse hepatocytes (Xenotech, Kansas City, USA). Cells were thawed in Leibovitz’s L-15 medium without phenol red (ThermoFisher Scientific, Waltham, USA). Briefly, cells were transferred into 50 mL of medium, followed by centrifugation at 55 g for 6 min. Supernatant was discarded, and the cell count was determined after gently resuspending the cell pellet in 1mL of medium. Hepatocytes were diluted to 0.5 × 10^6 cells/mL and incubated at 37 °C, 700 rpm for 10 min, to achieve the desired final cell count after addition of an equal volume of test compounds in medium, leading to a final test concentration of 1 µM at 1% DMSO. […] For the determination of metabolism in the presence of cobicistat, this drug was added together with test compounds in the desired concentration range. The metabolic stability of testosterone, verapamil, ketoconazole and 7-hydroxycoumarine were determined in parallel to confirm the enzymatic activity of mouse hepatocytes. […] Concentration of the remaining test compound at the different time points was analyzed by HPLC-MS/MS (Vanquish Flex coupled to a TSQ Altis Plus, Thermo Fisher, Dreieich, Germany) and used to determine half-life (t1/2). Intrinsic clearance was calculated as follows:2 CLintµL/min×10^6cells=Incubation volumeµL×ln(2)/Cells in incubation mixture[10^6]×t1/2
For metabolite identification studies, test compounds were incubated at 10 µM final concentration and samples were analyzed using HPLC-HRMS (Ultimate 3000 coupled to a Q Exactive Focus, Thermo Fisher, Dreieich, Germany). […] Blank samples using DMSO were run in parallel for background subtraction. Sample processing for metabolite identification was performed using Compound Discoverer 3.2 (Thermo Fisher, Dreieich, Germany). Metabolites were identified based on mass shifts and feasibility of the metabolic reaction, also in view of MS peak intensities over time.

[3] = Mouse plasma protein binding; assay type: in vitro ADME; details: read-out: Mouse PPB (converted)
physchem = details: zebrafish embryo incubation medium, aqueous buffer, kinetic from dmso stock

T1 sequence (P11388 whole entry): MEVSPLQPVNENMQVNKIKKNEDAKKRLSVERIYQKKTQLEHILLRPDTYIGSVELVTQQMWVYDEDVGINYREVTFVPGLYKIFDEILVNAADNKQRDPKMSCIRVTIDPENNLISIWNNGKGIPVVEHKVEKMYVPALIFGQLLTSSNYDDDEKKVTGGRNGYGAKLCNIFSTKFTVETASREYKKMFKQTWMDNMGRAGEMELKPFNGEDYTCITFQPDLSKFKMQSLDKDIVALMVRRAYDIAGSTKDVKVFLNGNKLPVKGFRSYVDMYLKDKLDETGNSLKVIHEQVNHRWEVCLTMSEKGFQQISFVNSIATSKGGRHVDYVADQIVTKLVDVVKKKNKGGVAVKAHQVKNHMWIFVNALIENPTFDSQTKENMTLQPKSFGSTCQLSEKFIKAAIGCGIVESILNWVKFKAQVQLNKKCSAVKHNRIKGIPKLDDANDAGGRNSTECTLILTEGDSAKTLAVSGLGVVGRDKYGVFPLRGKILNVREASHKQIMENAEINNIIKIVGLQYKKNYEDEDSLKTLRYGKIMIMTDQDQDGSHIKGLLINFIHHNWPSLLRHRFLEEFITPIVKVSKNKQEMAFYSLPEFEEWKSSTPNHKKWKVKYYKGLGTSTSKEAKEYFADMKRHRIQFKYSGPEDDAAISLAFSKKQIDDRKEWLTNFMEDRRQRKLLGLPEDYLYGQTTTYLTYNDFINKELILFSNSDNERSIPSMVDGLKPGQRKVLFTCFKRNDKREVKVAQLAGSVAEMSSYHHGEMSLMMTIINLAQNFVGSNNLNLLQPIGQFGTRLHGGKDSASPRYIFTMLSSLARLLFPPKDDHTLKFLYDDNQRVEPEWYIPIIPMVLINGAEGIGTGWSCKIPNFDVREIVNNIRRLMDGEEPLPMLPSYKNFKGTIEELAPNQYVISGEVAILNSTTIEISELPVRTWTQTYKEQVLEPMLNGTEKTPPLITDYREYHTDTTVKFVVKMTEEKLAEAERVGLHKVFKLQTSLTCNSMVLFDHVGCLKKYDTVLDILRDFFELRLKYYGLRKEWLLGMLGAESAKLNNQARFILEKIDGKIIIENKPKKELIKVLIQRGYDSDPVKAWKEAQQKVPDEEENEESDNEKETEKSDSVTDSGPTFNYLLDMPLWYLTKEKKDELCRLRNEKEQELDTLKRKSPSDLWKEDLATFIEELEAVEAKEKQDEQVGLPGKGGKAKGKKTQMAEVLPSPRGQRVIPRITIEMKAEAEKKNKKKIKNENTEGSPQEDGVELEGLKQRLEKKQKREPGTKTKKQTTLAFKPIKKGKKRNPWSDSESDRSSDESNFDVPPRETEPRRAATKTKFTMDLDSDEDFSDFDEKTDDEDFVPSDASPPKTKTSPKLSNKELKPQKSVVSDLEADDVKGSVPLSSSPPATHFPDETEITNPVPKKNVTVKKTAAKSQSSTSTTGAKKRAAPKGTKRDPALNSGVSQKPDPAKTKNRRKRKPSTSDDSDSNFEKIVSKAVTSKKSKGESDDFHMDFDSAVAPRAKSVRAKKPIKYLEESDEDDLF

In the case of CO[C@H](C(N)=O)[C@H](NC(=O)c1ccc(NC(=O)c2ccc(C#N)cc2)cc1)C(=O)Nc1ccc(C(=O)Nc2ccc(C(=O)Nc3ccc(C(=O)O)cc3)c(O)c2OC(C)C)cc1 [CN-861-2], the IC50 [1] is reported as 6.26 ± 4.69 µM, the IC50 (HepG2 (human, liver)) is reported as > 20 µM and the IC50 (HEK293 (human, kidney)) is reported as > 20 µM. For the same compound, the IC50 (Huh-7.5 (human, liver)) was > 20 µM, the “stable in murine hepatocytes for” value [2] was > 3 h and the hepatocyte CLint at 1 µM ([2]; mouse, pooled mouse hepatocytes, 1 μM, 0.25 × 10^6 cells/mL) was < 5.1 µL/min/1e6 cells. The half-life at 1 µM ([2]; mouse, pooled mouse hepatocytes, 1 μM, 0.25 × 10^6 cells/mL, read-out: Mouse Hepatocytes t1/2) was > 3 h, the fraction unbound [3] was 0.0037 and the solubility (physchem) was 20 µM (≈ 16.8 µg/mL).
